Values joined by “and” are separate entries in the source; they are usually repeats but may differ in a detail not shown here. Equal entries are not always repeated. Toxic doses and inconclusive results are not listed. Rule as the data show it: active = T/C of 150% or more; inactive = T/C below 125%.
Test system: L1210 leukemia ip in BDF1 mice, survival T/C
Experiment: NCI In Vivo Anticancer Drug Screen. Data for tumor model L1210 Leukemia (intraperitoneal) in B6D2F1 (BDF1) mice
Details: endpoint: mean survival time, higher = longer survival
In short: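 In this screen, tumor-bearing mice given compound are compared to those given vehicle, and their survival values are reported as a treated-to-control quotient.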

[1] = dose: 100.0 mg/kg/injection, schedule: Q01DX001 (ip), vehicle: carboxymethylcellulose (CMC)
[2] = dose: 200.0 mg/kg/injection, schedule: Q01DX001 (ip), vehicle: carboxymethylcellulose (CMC)
[3] = dose: 400.0 mg/kg/injection, schedule: Q01DX001 (ip), vehicle: carboxymethylcellulose (CMC)
[4] = dose: 100.0 mg/kg/injection, schedule: Q04DX003 (ip), vehicle: Klucel (hydroxypropylcellulose) (HPC)
[5] = dose: 200.0 mg/kg/injection, schedule: Q04DX002 (ip), vehicle: saline
[6] = dose: 200.0 mg/kg/injection, schedule: Q04DX003 (ip), vehicle: Klucel (hydroxypropylcellulose) (HPC)
[7] = dose: 400.0 mg/kg/injection, schedule: Q04DX002 (ip), vehicle: saline
[8] = dose: 400.0 mg/kg/injection, schedule: Q04DX003 (ip), vehicle: Klucel (hydroxypropylcellulose) (HPC)
[9] = dose: 100.0 mg/kg/injection, schedule: Q01DX009 (ip), vehicle: Klucel (hydroxypropylcellulose) (HPC)
[10] = dose: 200.0 mg/kg/injection, schedule: Q01DX009 (ip), vehicle: Klucel (hydroxypropylcellulose) (HPC)
[11] = dose: 400.0 mg/kg/injection, schedule: Q01DX009 (ip), vehicle: Klucel (hydroxypropylcellulose) (HPC)
[12] = dose: 100.0 mg/kg/injection, schedule: Q01DX001 (ip), vehicle: saline with Tween-80
[13] = dose: 100.0 mg/kg/injection, schedule: Q01DX009 (ip), vehicle: saline with Tween-80
[14] = dose: 100.0 mg/kg/injection, schedule: Q04DX002 (ip), vehicle: saline with Tween-80
[15] = dose: 200.0 mg/kg/injection, schedule: Q01DX001 (ip), vehicle: saline with Tween-80
[16] = dose: 200.0 mg/kg/injection, schedule: Q01DX009 (ip), vehicle: saline with Tween-80
[17] = dose: 200.0 mg/kg/injection, schedule: Q04DX002 (ip), vehicle: saline with Tween-80
[18] = dose: 400.0 mg/kg/injection, schedule: Q04DX002 (ip), vehicle: saline with Tween-80
[19] = dose: 100.0 mg/kg/injection, schedule: Q04DX002 (ip), vehicle: Klucel (hydroxypropylcellulose) (HPC)
[20] = dose: 200.0 mg/kg/injection, schedule: Q04DX002 (ip), vehicle: Klucel (hydroxypropylcellulose) (HPC)
[21] = dose: 400.0 mg/kg/injection, schedule: Q04DX002 (ip), vehicle: Klucel (hydroxypropylcellulose) (HPC)
[22] = dose: 100.0 mg/kg/injection, schedule: Q04DX003 (ip), vehicle: saline
[23] = dose: 200.0 mg/kg/injection, schedule: Q04DX003 (ip), vehicle: saline
[24] = dose: 400.0 mg/kg/injection, schedule: Q04DX003 (ip), vehicle: saline
[25] = dose: 100.0 mg/kg/injection, schedule: Q01DX001 (ip), vehicle: saline
[26] = dose: 200.0 mg/kg/injection, schedule: Q01DX001 (ip), vehicle: saline
[27] = dose: 400.0 mg/kg/injection, schedule: Q01DX001 (ip), vehicle: saline

Measured: T/C

Cc1ccc(-n2c(=O)c(N=Nc3ccccc3C)c(O)n(-c3ccccc3C)c2=S)cc1
inactive: dose: 37.5 mg/kg/injection, schedule: Q01DX001 (ip), vehicle: Klucel (hydroxypropylcellulose) (HPC) 95 % of control | dose: 75.0 mg/kg/injection, schedule: Q01DX001 (ip), vehicle: Klucel (hydroxypropylcellulose) (HPC) 103 % of control | dose: 150.0 mg/kg/injection, schedule: Q01DX001 (ip), vehicle: Klucel (hydroxypropylcellulose) (HPC) 100 % of control

O=c1[nH]c2cc(Cl)ccc2c2ccccc12
inactive: [1] 99 % of control | [2] 97 % of control | [3] 95 % of control

[C](#[C][Sn]([c]1ccccc1)([c]1ccccc1)[c]1ccccc1)[Sn]([c]1ccccc1)([c]1ccccc1)[c]1ccccc1
inactive: [4] 94 % of control | [5] 92 % of control | [6] 95 % of control | [7] 92 % of control | [8] 111 % of control

CCOC(CCc1c(-c2ccccc2)nc(NC(C)=O)[nH]c1=O)OCC
inactive: [9] 105 % of control | [10] 100 % of control | [11] 92 % of control

O=S(=O)(OCC1CO1)c1ccc(N=Nc2ccccc2)cc1 (configuration not stated)
inactive: dose: 100.0 mg/kg/injection, schedule: Q01DX008 (ip), vehicle: Klucel (hydroxypropylcellulose) (HPC) 98 % of control | dose: 200.0 mg/kg/injection, schedule: Q01DX008 (ip), vehicle: Klucel (hydroxypropylcellulose) (HPC) 90 % of control | dose: 400.0 mg/kg/injection, schedule: Q01DX008 (ip), vehicle: Klucel (hydroxypropylcellulose) (HPC) 96 % of control

O=C(NC(=S)Nc1cccc(C(F)(F)F)c1)c1cc([N+](=O)[O-])cc([N+](=O)[O-])c1
inactive: [12] 93 % of control | [13] 89 % of control | [14] 101 % of control | [15] 98 % of control | [16] 87 % of control and 89 % of control | [17] 94 % of control | [18] 97 % of control

COc1ccc(C(=O)OCc2ccccc2CN2CCOCC2)cc1
inactive: [19] 95 % of control | [20] 95 % of control | [21] 95 % of control

CCN=C(N)C(N)=NCC
inactive: dose: 100.0 mg/kg/injection, schedule: Q01DX009 (ip), vehicle: saline 94 % of control | [22] 103 % of control | dose: 200.0 mg/kg/injection, schedule: Q01DX009 (ip), vehicle: saline 94 % of control | [23] 100 % of control | dose: 400.0 mg/kg/injection, schedule: Q01DX009 (ip), vehicle: saline 89 % of control | [24] 97 % of control

COc1ccc(N=C2C(=O)Nc3ccc(Br)cc32)cc1
inactive: [19] 107 % of control | [20] 96 % of control | [21] 107 % of control

Cc1ccc(NC(=O)/C=C\C(=O)O)cc1
inactive: [9] 103 % of control | [4] 97 % of control | [10] 108 % of control | [6] 96 % of control | [11] 91 % of control | [8] 91 % of control

CS(=O)(=O)OCCCc1nc2ccccc2n1S(C)(=O)=O
inactive: [1] 110 % of control | [2] 110 % of control | [3] 104 % of control

CC1Oc2ccccc2OC1NC1=NCCO1 (configuration not stated)
inactive: dose: 100.0 mg/kg/injection, schedule: Q01DX001 (ip), vehicle: Klucel (hydroxypropylcellulose) (HPC) 97 % of control | [4] 100 % of control | dose: 200.0 mg/kg/injection, schedule: Q01DX001 (ip), vehicle: Klucel (hydroxypropylcellulose) (HPC) 103 % of control | [6] 100 % of control | dose: 400.0 mg/kg/injection, schedule: Q01DX001 (ip), vehicle: Klucel (hydroxypropylcellulose) (HPC) 102 % of control | [8] 108 % of control

CCCC(C)(CO)COC(N)=O (configuration not stated)
inactive: [25] 105 % of control | [26] 103 % of control | [27] 111 % of control

O=S(=O)(O)CS(=O)(=O)O.[Ag]
inactive: dose: 5.0 mg/kg/injection, schedule: Q01DX001 (ip), vehicle: saline 101 % of control | dose: 10.0 mg/kg/injection, schedule: Q01DX001 (ip), vehicle: saline 95 % of control | dose: 20.0 mg/kg/injection, schedule: Q01DX001 (ip), vehicle: saline 97 % of control | dose: 40.0 mg/kg/injection, schedule: Q01DX001 (ip), vehicle: saline 97 % of control

CC(=O)Nc1ccc(C(=O)C(O)c2ccc(NC(C)=O)cc2)cc1 (configuration not stated)
inactive: dose: 50.0 mg/kg/injection, schedule: Q01DX001 (ip), vehicle: other 100 % of control | dose: 100.0 mg/kg/injection, schedule: Q01DX001 (ip), vehicle: other 92 % of control | dose: 200.0 mg/kg/injection, schedule: Q01DX001 (ip), vehicle: other 105 % of control | dose: 400.0 mg/kg/injection, schedule: Q01DX001 (ip), vehicle: other 88 % of control

CC(=O)NCCC(C)C
inactive: [22] 98 % of control | [23] 98 % of control | [24] 95 % of control

COC(=O)C12N=NN(c3ccccc3)C1(C(=O)OC)C1CCC2C1 (configuration not stated)
inactive: [13] 106 % of control | [4] 96 % of control | [16] 94 % of control | [6] 102 % of control | dose: 400.0 mg/kg/injection, schedule: Q01DX009 (ip), vehicle: saline with Tween-80 98 % of control | [8] 97 % of control

CCOC(=O)c1ccc(NC(=O)Nc2cc(OC)ccc2OC)cc1
inactive: dose: 25.0 mg/kg/injection, schedule: Q01DX009 (ip), vehicle: saline with Tween-80 100 % of control and 91 % of control | dose: 50.0 mg/kg/injection, schedule: Q01DX009 (ip), vehicle: saline with Tween-80 95 % of control | [12] 98 % of control | [14] 96 % of control | dose: 100.0 mg/kg/injection, schedule: Q04DX003 (ip), vehicle: saline with Tween-80 96 % of control | [15] 95 % of control | [16] 91 % of control | [17] 100 % of control | dose: 400.0 mg/kg/injection, schedule: Q01DX001 (ip), vehicle: saline with Tween-80 91 % of control | [18] 94 % of control

CCN(CC)CCNC(=O)c1c2c(nc3ccccc13)CCCC2
inactive: [25] 103 % of control | [26] 102 % of control | [27] 98 % of control

Clc1ccccc1C(N1CCCCC1)C(Cl)(Cl)Cl (configuration not stated)
inactive: dose: 100.0 mg/kg/injection, schedule: Q04DX002 (ip), vehicle: saline 92 % of control | [5] 90 % of control | [7] 92 % of control

From PubChem BioAssay AID248 (DTP/NCI, 2004)
